Reference: patent US10233179B2, “Thiazoles and uses thereof” (AbbVie Inc., priority 2013, dated 2019)

Columns and labels:
[1] = tested on: RSV (Group A, Long Strain); experiment: Antiviral cytopathic effect (CPE) protection assay, MTT readout; assay type: cell-based; settings: human respiratory syncytial virus, 96 h; HEp-2 cells, 0.2 MOI RSV, 4 days incubation, protection from CPE by MTT
Method: HEp-2 cells and RSV (Group A, Long Strain) were obtained from the American Type Culture Collection (Manassas, Va.).
A cytopathic effect (CPE) protection assay was performed to determine the ability of a compound to protect the cells from viral infection and thus the CPE induced by viral infection. 96-Well plates were first seeded with 3×10^3 HEp-2 cells per well in Dulbecco's modified Eagle's medium (DMEM) containing 10% fetal bovine serum (FBS). One day after the cells were seeded, they were preincubated with serial dilutions of compounds prepared in 100 μL assay medium (DMEM mixed with F12 medium at a 1:1 ratio, supplemented with 2% FBS and 1 mM sodium pyruvate) for 1 hour at 37° C. 100 μL of assay medium containing 0.2 multiplicity of infection (MOI) of RSV was then added to each well of cells. In addition to wells containing infected cells incubated with compounds, each plate also contained replicates of two kinds of controls: (1) Virus control contained cells infected with 0.2 MOI of RSV in assay medium, (2) Uninfected cell control contained cells incubated with assay medium only. After 4 days of incubation at 37° C., the viability of cells was assessed using MTT (Thiazolyl blue tetrazolium bromide, Sigma). A stock solution of MTT, at a concentration of 4 mg/mL in phosphate-buffered saline, was added to all wells at 25 μL per well. Plates were further incubated for 4 hours, and each well was then treated with 50 μL of a solution containing 20% sodium dodecyl sulfate (SDS) and 0.02 N HCl. After an overnight incubation, the plates were measured on a BioTek® microtiter plate reader at wavelengths of 570 nm and 650 nm. The MTT detection is based on the fact that viable (uninfected) cells can reduce the tetrazolium salts into colored formazan products, which can then be quantitated by spectrometry. Based on the spectrometric absorbance of each sample, the percent of protection from CPE, which is an indicator of protection from viral infection, can be calculated for each compound and the 50% effective concentrations (EC50) can be calculated using a nonlinear regression curve fitting equation provided by the GraphPad Prism® 4 software.
Compounds were tested to determine both their antiviral and toxicity to determine their therapeutic window. Determination of the EC50 and TD50 of these active compounds were repeated one additional time to confirm the window.

HEp-2 cells = experiment: Cytotoxicity assay (MTT) in parallel with the antiviral assay; assay type: cell-based
Method: HEp-2 cells and RSV (Group A, Long Strain) were obtained from the American Type Culture Collection (Manassas, Va.). Cytotoxicity of the compounds was determined in experiments done in parallel with the antiviral assays. To do this, 100 μL of assay medium was added to the wells of HEp-2 cells pretreated with 100 μL serially diluted compounds as described above. After 4 days of incubation, the viability of the cells was determined by the MTT assay in the same way as detailed in the “Antiviral Assay” method. Results were expressed as 50% toxicity dose (TD50) values. Compounds were tested to determine both their antiviral and toxicity to determine their therapeutic window. Determination of the EC50 and TD50 of these active compounds were repeated one additional time to confirm the window.

[2] = uninfected HEp-2 cells, 4 days incubation, MTT viability

SMILES | EC50 [1] [nM] | MTT TD50 (HEp-2 cells; [2]) [µM] | MTT TD50 (HEp-2 cells; human, 4 days) [µM]
N#Cc1cc(CN(Cc2cccn2-c2nncs2)Cc2cccn2-c2nncs2)cs1 [Example 28, 4-[(bis{[1-(1,3,4-thiadiazol-2-yl)-1H-pyrrol-2-yl]methyl}amino)methyl]thiophene-2-carbonitrile] | 760 | >100 | 
FC1(F)CCC(CN(Cc2cccn2-c2nncs2)Cc2cccn2-c2nncs2)CC1 [Example 23, 1-(4,4-difluorocyclohexyl)-N,N-bis{[1-(1,3,4-thiadiazol-2-yl)-1H-pyrrol-2-yl]methyl}methanamine] | 2400 | >100 | 
FC(F)n1ccnc1CN(Cc1cccn1-c1nccs1)Cc1cccn1-c1nccs1 [Example 59, 1-[1-(difluoromethyl)-1H-imidazol-2-yl]-N,N-bis{[1-(1,3-thiazol-2-yl)-1H-pyrrol-2-yl]methyl}methanamine] | 4100 | 35 | 
c1ccc(CN(Cc2cccn2-c2nncs2)Cc2cccn2-c2nncs2)cc1 [Example 10, 1-phenyl-N,N-bis{[1-(1,3,4-thiadiazol-2-yl)-1H-pyrrol-2-yl]methyl}methanamine] | 520 | 97 | 
CC(c1ccc(Cl)c(Cl)c1)N(Cc1cccn1-c1nccs1)Cc1cccn1-c1nccs1 (stereo not shown) [Example 46, 1-(3,4-dichlorophenyl)-N,N-bis{[1-(1,3-thiazol-2-yl)-1H-pyrrol-2-yl]methyl}ethanamine] | 550 | >32 | 
c1cncc(C2(CCN(Cc3cccn3-c3nncs3)Cc3cccn3-c3nncs3)CC2)c1 [Example 24, 2-[1-(pyridin-3-yl)cyclopropyl]-N,N-bis{[1-(1,3,4-thiadiazol-2-yl)-1H-pyrrol-2-yl]methyl}ethanamine] | 2900 | >100 | 
CC(Cc1cccs1)N(Cc1cccn1-c1nccs1)Cc1cccn1-c1nccs1 (stereo not shown) [Example 64, N,N-bis{[1-(1,3-thiazol-2-yl)-1H-pyrrol-2-yl]methyl}-1-(thiophen-2-yl)propan-2-amine] | 330 |  | 5.6
C[C@@H](c1ccccc1Cl)N(Cc1cccn1-c1nncs1)Cc1cccn1-c1nncs1 [Example 20, (1S)-1-(2-chlorophenyl)-N,N-bis{[1-(1,3,4-thiadiazol-2-yl)-1H-pyrrol-2-yl]methyl}ethanamine] | 360 | >32 | 
Cn1nccc1N(Cc1cccn1-c1nncs1)Cc1cccn1-c1nncs1 [Example 9, 1-methyl-N,N-bis{[1-(1,3,4-thiadiazol-2-yl)-1H-pyrrol-2-yl]methyl}-1H-pyrazol-5-amine] | 4900 | >32 | 

These reach a lower EC50 [1]. Values come first.

EC50 [1] [nM] | SMILES | MTT TD50 (HEp-2 cells; [2]) [µM] | MTT TD50 (HEp-2 cells; human, 4 days) [µM]
320 | Cc1c(C(C)N(Cc2ncc(-c3ccccc3)n2C)Cc2ncc(-c3ccccc3)n2C)cnn1-c1cccc(F)c1 (stereo not shown) [Example 7, 1-[1-(3-fluorophenyl)-5-methyl-1H-pyrazol-4-yl]-N,N-bis[(1-methyl-5-phenyl-1H-imidazol-2-yl)methyl]ethanamine] | 5.2 | 
120 | Fc1ccccc1CN(Cc1cccn1-c1nncs1)Cc1cccn1-c1nncs1 [Example 15, 1-(2-fluorophenyl)-N,N-bis{[1-(1,3,4-thiadiazol-2-yl)-1H-pyrrol-2-yl]methyl}methanamine] | 67 | 
82 | N#Cc1cc(CN(Cc2cccn2-c2nccs2)Cc2cccn2-c2nccs2)cs1 [Example 67, 4-[(bis{[1-(1,3-thiazol-2-yl)-1H-pyrrol-2-yl]methyl}amino)methyl]thiophene-2-carbonitrile] | >32 | 
62 | Clc1ccccc1CN(Cc1cccn1-c1nncs1)Cc1cccn1-c1nncs1 [Example 18, 1-(2-chlorophenyl)-N,N-bis{[1-(1,3,4-thiadiazol-2-yl)-1H-pyrrol-2-yl]methyl}methanamine] | >32 | 
54 | COc1ccc(CN(Cc2cccn2-c2nccs2)Cc2cccn2-c2nccs2)c(OC)c1 [Example 30, 1-(2,4-dimethoxyphenyl)-N,N-bis{[1-(1,3-thiazol-2-yl)-1H-pyrrol-2-yl]methyl}methanamine] | 4.9 | 
